EP0188781A1, “1-Oxa-1-dethia-cephalosporin compounds and antibacterial agent comprising the same” (Merck & Co., Inc., priority 1984, dated 1986)

Key:
[1] = Concentration in serum after subcutaneous administration to mice, bioassay with Escherichia coli; type: in vivo; conditions: mouse, sc, 25 mg/kg subcutaneously; for concentration at 0.5 h: 1/2 hour; for concentration at 0.25 h: 1/4 hour; for concentration at 5 min: 1/12 hour
Text: For the serum which was separated from the blood samples, the concentration in the serum of the compound administered was bioassayed using Escherichia coli as assay microorganism.

[2] = tested on: Pseudomonas aeruginosa MB3833; assay: Minimum inhibitory concentration (MIC) in vitro, antibacterial spectrum; type: cell-based
[3] = tested on: Pseudomonas aeruginosa E-2; assay: as above; type: cell-based
Proteus rettgeri GN624 = assay: as above; type: cell-based
Escherichia coli GN206 = assay: as above; type: cell-based
[4] = tested on: Pseudomonas aeruginosa MB3829; assay: as above; type: cell-based
[5] = tested on: Salmonella typhimurium LT-2; assay: as above; type: cell-based
Streptococcus faecalis = assay: Antibacterial activity in vitro, summary in words; type: cell-based; conditions: statement in words on Table 1
Proteus mirabilis GN79 = assay: Minimum inhibitory concentration (MIC) in vitro, antibacterial spectrum; type: cell-based
[6] = tested on: Serratia marcescens No. 2; assay: as above; type: cell-based
[7] = tested on: Streptococcus faecalis W-73; assay: as above; type: cell-based
[8] = tested on: Streptococcus faecalis W-75; assay: as above; type: cell-based
Pseudomonas aeruginosa = assay: Antibacterial activity in vitro, summary in words; type: cell-based; conditions: statement in words on Table 1
Text: Besides, the compounds of Examples 1, 2, 4, 5 and 7 advantageously are also effective against Pseudomonas aeruginosa.

[9] = tested on: Staphylococcus aureus Smith; assay: Minimum inhibitory concentration (MIC) in vitro, antibacterial spectrum; type: cell-based
Proteus vulgaris GN76 = assay: as above; type: cell-based
[10] = tested on: Streptococcus faecalis ATCC8043; assay: as above; type: cell-based
[11] = tested on: Staphylococcus aureus 209 P JC-1; assay: as above; type: cell-based
[12] = tested on: Escherichia coli NIHJ JC-2; assay: as above; type: cell-based
[13] = tested on: Streptococcus faecalis W-74; assay: as above; type: cell-based

| Structure (SMILES) | concentration at 0.5 h [1] | concentration at 0.25 h [1] | concentration at 5 min [1] | concentration at 1 h [1] | Minimum inhibitory concentration (MIC) [2] | Minimum inhibitory concentration (MIC) [3] | Minimum inhibitory concentration (MIC) (Proteus rettgeri GN624) | Minimum inhibitory concentration (MIC) (Escherichia coli GN206) | Minimum inhibitory concentration (MIC) [4] | Minimum inhibitory concentration (MIC) [5] | effective against Streptococcus faecalis (Streptococcus faecalis) | Minimum inhibitory concentration (MIC) (Proteus mirabilis GN79) | Minimum inhibitory concentration (MIC) [6] | Minimum inhibitory concentration (MIC) [7] | Minimum inhibitory concentration (MIC) [8] | effective against Pseudomonas aeruginosa (Pseudomonas aeruginosa) | Minimum inhibitory concentration (MIC) [9] | Minimum inhibitory concentration (MIC) (Proteus vulgaris GN76) | Minimum inhibitory concentration (MIC) [10] | Minimum inhibitory concentration (MIC) [11] | further results |
| --- | --- | --- | --- | --- | --- | --- | --- | --- | --- | --- | --- | --- | --- | --- | --- | --- | --- | --- | --- | --- | --- |
| CCN1CCN(C(=O)NC(C(=O)N[C@@H]2C(=O)N3C(C(=O)O)=C(CSc4nc(=O)c(O)nn4C)[C@H](C)O[C@H]23)c2csc(N)n2)C(=O)C1=O (single isomer, unassigned) [Compound No. 5] | 25000 ng/mL | 44000 ng/mL | 24000 ng/mL | 10000 ng/mL | 3.13 | 3.13 | 0.78 | 1.56 | 1.56 | 0.10 | effective | 0.78 | 0.39 | 25 | 3.13 | effective | 3.13 | 0.025 | 50 | 1.56 | Minimum inhibitory concentration (MIC) [12]: 0.10; Minimum inhibitory concentration (MIC) [13]: 6.25 |
| CO/N=C(\C(=O)N[C@@H]1C(=O)N2C(C(=O)O)=C(CSc3nc(=O)c(O)nn3C)[C@H](C)O[C@H]12)c1csc(N)n1 [Compound No. 1, (6R,7R)-7[(Z)-2-(2-aminothiazol-4-yl)-2-(methoxyimino)acetamido]-(2S)-2-methyl-3-(2,5-dihydro-6-hydroxy-2-methyl-5-oxo-1,2,4-triazin-3-yl)thiomethyl-l-oxa-l-dethia-ceph-3-em-4-carboxylic acid] | 41000 ng/mL | 47700 ng/mL | 27000 ng/mL | 24800 ng/mL | 6.25 | 12.5 | 0.78 | 0.78 | 6.25 | 0.05 | effective | 0.025 | 0.39 | 50 | 0.20 | effective | 1.56 | 0.10 | 6.25 | 0.78 | Minimum inhibitory concentration (MIC) [12]: 0.10; Minimum inhibitory concentration (MIC) [13]: 6.25 |
